Source: ChEMBL document CHEMBL1121458, “Benzenesulfenamides as antihypertensive agents. Substituted piperidine and 1-arylpiperazine derivatives” (1980)

Columns and labels:
Assay type in all cases: functional
Rattus norvegicus [1] = experiment: Antihypertensive activity was measured for systolic pressure using spontaneous hypertensive rats (SHR) at 25 mg/kg after oral administration
Rattus norvegicus [2] = experiment: Antihypertensive activity was measured for systolic pressure using spontaneous hypertensive rats (SHR) at 10 mg/kg after oral administration
Rattus norvegicus [3] = experiment: Antihypertensive activity was measured for systolic pressure using spontaneous hypertensive rats (SHR) at 50 mg/kg after oral administration
Rattus norvegicus [4] = experiment: Antihypertensive activity was measured for systolic pressure using spontaneous hypertensive rats (SHR) at 50 mg/kg

| Structure (SMILES) | Change in systolic pressure (Rattus norvegicus [1]) [mmHg] | Change in systolic pressure (Rattus norvegicus [2]) [mmHg] | Change in systolic pressure (Rattus norvegicus [3]) [mmHg] | Change in systolic pressure (Rattus norvegicus [4]) [mmHg] |
| --- | --- | --- | --- | --- |
| [O-][S+](c1ccccc1)N1CCN(c2ccccc2)CC1 (stereo not drawn) | 42 | 22 | 83 |  |
| O=C(c1ccccc1)C1CCN(Sc2ccccc2)CC1 | -14 |  |  |  |
| Clc1ccc(N2CCN(Sc3ccccc3)CC2)cc1 | 23.5 |  | 44 |  |
| c1ccc(SN2CCN(c3ccccn3)CC2)cc1 | 65 |  | 40 |  |
| Brc1ccc(OC2CCN(Sc3ccccc3)CC2)cc1 |  |  | -15 |  |
| O=S(=O)(c1ccccc1)N1CCN(c2ccccc2)CC1 | 33 |  | 26 |  |
| COc1cccc(N2CCN(Sc3ccccc3)CC2)c1 |  |  | 35 |  |
| c1ccc(SN2CCN(c3ccccc3)CC2)cc1 | 90 | 16.5 |  |  |
| c1ccc(SN2CCC3(CC2)OC(c2ccccc2)c2ccccc23)cc1 (stereo not drawn) | -44 |  | -66 |  |
| Cc1cccc(N2CCN(Sc3ccccc3)CC2)c1 |  | 16 |  |  |
| Cc1ccccc1N1CCN(Sc2ccccc2)CC1 |  |  | 8 |  |
| [O-][S+](c1ccccc1)N1CCN(c2ccccn2)CC1 (stereo not drawn) | 59 | 36 | 80 |  |
| COc1ccccc1N1CCN(Sc2ccccc2)CC1 | 27 |  | 71 |  |
| c1ccc(COC2(c3ccccc3)CCN(Sc3ccccc3)CC2)cc1 |  |  |  | 2 |
| Cc1ccc(C(=O)C2CCN(Sc3ccccc3)CC2)cc1 |  |  | 7 |  |
| Clc1ccccc1N1CCN(Sc2ccccc2)CC1 |  |  | 28 |  |
| c1ccc(SN2CCC(c3ccccc3)CC2)cc1 |  |  | -9 |  |
| c1ccc(CN2CCN(Sc3ccccc3)CC2)cc1 | 23 |  | 17 |  |
| FC(F)(F)c1cccc(N2CCN(Sc3ccccc3)CC2)c1 |  |  | 6 |  |
| COc1ccc(N2CCN(Sc3ccccc3)CC2)cc1 | 7 |  |  |  |
| O=S(=O)(c1ccccc1)N1CCN(c2ccccn2)CC1 |  |  | 5 |  |
| N=C(N)NCCN1CCCCCCC1 [GUANETHIDINE] |  | 34 |  |  |
